Columns and labels:
[1] = tested on: MDA-MB-231; test: Western blot / RT-PCR of EMT, hypoxia, ER stress and TGFβ markers; format: cell-based, human
Procedure: (§1) Protein levels of iNOS and EMT-inducing factors were determined by Western blot with antibodies against: iNOS (N-20) and Twist1 (L-21) (Santa Cruz Biotechnology), Snail (C15D3), Slug (C19G7) and TCF8/Zeb1 (D80D3) (Cell Signaling) (1:1000 dilution). β-actin (Cell Signaling; 1:2000) was used as loading control;
(§2) Western Blot. […] Cells were resuspended in 1× lysis buffer (Cell Signaling Technology, Inc.) and 1× protease/phosphatase inhibitor cocktail (Thermo Scientific). Samples (30 μg protein) were boiled in 4×LDS sample buffer (Thermo Scientific) containing […] (Sigma-Aldrich) and subjected to SDS-PAGE electrophoresis in 4-20% polyacrylamide gels (Bio-Rad, Hercules, Calif., USA). Proteins were transferred onto nitrocellulose membranes (Bio-Rad) and non-specific binding was avoided incubating with 5% non-fat dry milk in 1×Tris-buffered saline (TBS) for 1 hr. Membranes were incubated overnight at 4° C. with primary antibodies (1:1,000 dilution; anti-β-Actin, 1:2,000 dilution). After washing and incubation with the appropriate secondary antibodies for 1 hr (1:2,000 dilution), membranes were washed and incubated with enhanced chemiluminescence substrate. Protein bands were developed in autoradiography films (Denville Scientific, Inc., Holliston, Mass., USA).
RT-PCR Analysis of Spliced XBP1. […] The PCR amplification (50 ng cDNA) was done with […] Taq DNA polymerase (native, 5 U/μL), 0.2 mM dNTP, 1.5 mM MgCl2 (50 mM) and 0.5 μM of each primer.

[2] = tested on: adenoid cystic carcinoma of the oral cavity; conditions: mouse, in vivo; cited from earlier work
[3] = tested on: HRT-18 cells; conditions: daily treatment with 500 μM; cited from earlier work
[4] = tested on: SUM159; test: Western blot of EMT, hypoxia, ER stress and TGFβ markers; format: cell-based, human
Procedure: as §1, §2

[5] = tested on: MCF10A; test: Western blot of PERK/eIF2α/ATF4/ATF3 axis with recombinant TGFβ1; format: cell-based; conditions: 1400 W 4 mM co-treatment with recombinant TGFβ1 for 24 hrs
Description: FIG. 3A, FIG. 3B, FIG. 3C, FIG. 3D, FIG. 3E, FIG. 3F, FIG. 3G, FIG. 311, FIG. 3I, and FIG. 3J show iNOS knockdown impairs tumorigenicity and EMT by a dual impact on HIF1α and endoplasmic reticulum (ER) stress/TGFβ/AFT4/ATF3 crosstalk. Proliferation (FIG. 3A), migration (FIG. 3B), and self-renewal capacity (primary and secondary mammospheres) (FIG. 3C) in MDA-MB-231 cells transfected with two different NOS2-directed shRNAs (shRNA1, shRNA2) compared with empty vector (shRNA-EV). […] Selective iNOS inhibition reduced hypoxia (HIF1α), ER stress markers (IRE1α, ATF4) (FIG. 3F), phospho-Smad2/3, Smad2/3 and mature TGFβ protein levels in MDA-MB-231 and SUM159 cells (FIG. 3G). FIG. 3H: Recombinant TGFβ1 (10 ng/mL for 24 hrs) activates the PERK/eIF2α/ATF4/ATF3 axis in MCF10A. […] FIG. 3J: Selective iNOS inhibition is postulated to impair EMT and tumor cell migration by an impact on HIF1α, ER stress (IRE1α/XBP1) and the crosstalk between ATF4, ATF3 and TGFβ. Results were normalized to empty vector. Data are presented as mean±SEM. ****p<0.0001, ***p<0.001, **p<0.01. One-way ANOVA and Bonferroni's post-hoc test;
Western Blot. Cells were cultured at a density of 2.5×10^5 cells/well in 6-well plates with or without iNOS inhibitors for 96 hrs. Cells were resuspended in 1× lysis buffer (Cell Signaling Technology, Inc.) and 1× protease/phosphatase inhibitor cocktail (Thermo Scientific). […]

[6] = tested on: SUM159; test: Cell migration, wound healing assay; format: cell-based, human; conditions: 96 hrs treatment, wound healing 12 hrs
Procedure: (§3) FIG. 18A and FIG. 18B show the migration of MDA-MB-231 and SUM159 cells was assessed by “wound healing” assay. Briefly, 3×10^5 cells were plated in a 6-well plate until confluence in growth medium. […] A “wound” was then created in the cell monolayer. Images were taken at 0 and 12 hrs. Wound-healing capacity was determined with the software Image J. Data were replicated in three independent experiments. Results were normalized to vehicle;
(§4) Cell migration capacity. Cell migration was determined with a “wound healing assay.” Briefly, 3×10^5 cells/well were grown in 6-well plates until confluence. […] To avoid an impact on cell proliferation, low serum medium was changed by regular growth medium in presence of inhibitors for 24 hrs (96 hrs total). A “wound” was then created in the cell monolayer with a 100-4, pipette tip. Images were taken at 0 hrs, and cells were allowed to heal the wound for 12 hrs. Wound-healing capacity was determined with the software Image J. Data were replicated in three independent experiments.

[7] = tested on: MDA-MB-231; test: Cell migration, wound healing assay; format: cell-based, human; conditions: 96 hrs treatment, wound healing 12 hrs
Procedure: as §3, §4

[8] = tested on: EMT-6 cells; conditions: mouse, in vivo; cited from earlier work
[9] = tested on: MDA-MB-231 xenografts; test: Lung metastases-preventing study, MDA-MB-231 L/G xenografts; format: in vivo, mice
Procedure: For the lung metastases-preventing study, MDA-MB-231 L/G cells were implanted as described above. The mice were randomized and treatments started 48 hrs after cell injection (n=5/group): 1) Vehicle (saline, i.p.), 2) L-NAME (80 mg/kg, i.p., daily for 35 days). Previous injection of luciferin, lungs were removed and washed in cold DMEM+10% FBS+1% antibiotics/antimycotic. Then, lungs were incubated in cold DMEM media containing 50 μM luciferin for 10 min. This protocol avoids the time lapse between lung extraction and exposure to luciferin. Fluorescent cancer cells were detected with an IVIS-200 in vivo imaging system (Perkin Elmer, Inc., Santa Clara, Calif., USA).
Self-renewal and tumor-initiating capacity was determined by MSFE and limiting-dilution assays, respectively, in single cells isolated from tumor tissue. Briefly, breast tumor tissue was minced, digested in DMEM:F12 medium with 100 U/mL of collagenase type 3 (Worthington, Lakewood, N.J., USA) and 0.8 U/mL of dispase (Gibco, Carlsbad, Calif., USA) at 37° C. for 45 min. MSFE was assayed in isolated single cells as stated above. The limiting dilution assay (LDA) was performed injecting either […] isolated cells from tumor tissue in the mammary fat pad of SCID Beige mice (n=12/group). Flow cytometric analysis of CD44^+/CD24^−/low cell population was assayed using published methods.
iNOS inhibition reduces tumor growth, tumor initiating capacity and prevents lung metastases in mouse models of triple negative breast cancer. Based on the in vitro data, the inventor next investigated whether iNOS inhibition was able to prevent tumor initiation and metastasis of breast tumor cells in a mouse model of lung metastases. Daily i.p. injections of 80 mg/kg L-NAME were given to MDA-MB-231 xenograft-bearing mice for 35 days. […] Additionally, tumor-initiating capacity of CSC was assessed with a limiting dilution assay (LDA) by injecting single cells isolated from tumor tissue (5×10^5 or 1×10^5 cells) in the right mammary fat pad. All the animals of vehicle group (n=5) developed tumors whereas treatment with L-NAME yielded 3/5 tumors at 1.5 weeks with 5×10^5 cells.
The inventor then examined whether iNOS inhibition was able to suppress metastasis to lungs in TNBC xenografts model. The luciferase/GFP-based MDA-MB-231 (MDA-MB-231 L/G) xenograft mouse model mimics the metastatic process to the lungs in patients. In this model of lung metastasis, cells metastasize from the primary tumor to lungs in ˜35 days after implantation. MDA-MB-231 L/G cells were injected in the right mammary fat pad of SCID mice and 80 mg/kg L-NAME was given daily for 35 days.

[10] = tested on: C3L5 and C10; conditions: cited from earlier work
[11] = millimolar and micromolar concentrations, 96 hrs

## CC(=N)NCc1cccc(CN)c1 [1400 W, N-[[3-(aminomethyl)phenyl]methyl]-ethanimidamide]
[1]; 96 hrs
  ER stress markers IRE1α/splicedXBP1 and ATF4: dose-dependent decrease
  hypoxia (HIF1α): dose-dependent decrease
[1]; absence and presence of recombinant TGFβ1 (10 ng/mL for 72 hrs)
  TGFβ signaling (phospho-Smad2/3, Smad2/3 and mature TGFβ): inhibit TGFβ signaling
[1]; [11]
  protein levels of the EMT transcription factors Snail, Slug, and Twist1: reduction in protein levels
[1]; millimolar concentrations
  Zeb1 protein levels: decreased
[2]
  spontaneous lung metastasis: markedly inhibit spontaneous lung metastasis
[3]
  invasiveness: substantially decreased
[4]; 96 hrs
  hypoxia (HIF1α): dose-dependent decrease
[4]; absence of recombinant TGFβ1
  TGFβ signaling (phospho-Smad2/3, Smad2/3 and mature TGFβ): inhibit TGFβ signaling
[4]; [11]
  protein levels of the EMT transcription factors Snail, Slug, and Twist1: reduction in protein levels
[4]; millimolar concentrations
  Zeb1 protein levels: decreased
[4]; splicedXBP1 was not detected in SUM159 cells
  ER stress markers IRE1α and ATF4: dose-dependent decrease
[5]
  stimulation of ATF4 and ATF3 protein levels by TGFβ1: inhibit the stimulation of ATF4 and ATF3 protein levels
[6]; micromolar range
  migration: marked dose-dependent decrease in migration
[6]; millimolar range
  migration: marked dose-dependent decrease in migration
[7]; micromolar range
  migration: marked dose-dependent decrease in migration
[7]; millimolar range
  migration: marked dose-dependent decrease in migration

## COC(=O)[C@@H](N)CCCNC(=N)N[N+](=O)[O-] [L-NAME, N^5-[imino(nitroamino)methyl]-L-ornithine methyl ester]
[8]
  tumor growth and lung metastasis: decrease tumor growth and lung metastasis
[9]; 80 mg/kg daily for 35 days
  ex vivo imaging of lungs in presence of luciferin (lung metastasis): higher fluorescence in vehicle group compared to L-NAME group
[9]; 80 mg/kg i.p. daily for 35 days
  MSFE of primary MS of cells isolated from tumor tissue: significantly reduced
[9]; 80 mg/kg i.p. daily for 35 days, p=0.001
  tumor growth: significantly reduced tumor growth
[9]; 80 mg/kg i.p. daily, compared to vehicle group
  secondary MSFE of cells isolated from tumor tissue: diminished but not significantly
[9]; 1.5 weeks with 5×10^5 cells, vehicle all animals (n=5)
  limiting dilution assay, tumors developed: 3/5
[9]; 2.5 weeks with 1×10^5 cells
  limiting dilution assay, tumors developed: 0/5
[10]
  invasive and migrating potential: inhibited the invasive and migrating potential

From patent US11357850B2, “Methods for treating breast cancer using INOS-inhibitory compositions” (The Methodist Hospital, priority 2014, dated 2022)
